Experimental data published in patent US7642239B2, “Inhibition of placenta growth factor (PLGF) mediated metastasis and/or angiogenesis” (Center for Molecular Medicine and Immunology, priority 2005, dated 2010).
Marks after values point to notes of the source that are not given here. Ends that are not written are not given here.

Legend:
MCF-7 = test: Wound-healing (motility) assay, MCF-7; type: cell-based, human; conditions: for Relative activity: unit assumed; for Migrating cells: 18-24 h
Experimental: MCF-7, MDA-MB-23 1, and MDA-MB-468 breast tumor cell lines or HECs were seeded onto sterile glass coverslips in Petri dishes or six-well plates. When the cells were 70-80% confluent, the monolayers were scratched with a sterile plastic pipet tip.
Inhibitor concentrations were 50 μM PD98059 (PD98) (mitogen activated protein kinase-kinase 1 [MEK1] inhibitor), 5 nM Wortmannin (phosphatidyl inositol 3 kinase [PI3K] inhibitor), or human recombinant soluble Flt-1 (sFlt-1) (R&D Systems). […] Cells were pre-incubated with PD98 and Wortmannin for 15-30 min before addition of PlGF. Stained (Wright-Giemsa) and mounted coverslips were examined microscopically. Five to ten 100× fields were evaluated by counting the number of cells separated from the wound edges and which appeared to be migrating toward the center of the wound. Results are reported as the average number of cells migrating into the wound/100× field. In some cases data from separate experiments were combined to accommodate inclusion of various treatments in the tables.
Antibody concentration was 1 μg/ml. MEK1 inhibitor, PD98059 (PD98), 50 μM. PI3K inhibitor, Wortmannin, 5 nM. […] Values for antibody and inhibitor treatments were from separate experiments which included all relevant controls. […] UT denotes untreated controls. *P<0.01 (ANOVA) compared to UT; † P<0.02 (ANOVA) compared to PlGF only. ‡ P<0.001 (ANOVA) compared to PlGF only.

MDA-MB-468 xenografts = type: in vivo, mice; conditions: 200 μg/dose i.p., twice-weekly
Experimental: FIG. 5. Treatment of mice bearing MDA-MB-468 xenografts with peptides BP1 or BP3. Mice were treated every 3-4 days with 200 ug BP as described in Methods. Tumor volume was measured 2×/week. *P<0.05 at days 10, 14, 17 and 24 (change in tumor volume (ANOVA)). FIG. 5A—tumors treated with binding peptide 1. FIG. 5B—tumors treated with binding peptide 3.
Mice bearing MDA-MB-468 xenografts (average tumor volume: 0.19 cm^3) were treated with i.p. injections of individual peptides (200 μg/dose) (FIG. 5). After 4 weeks of twice-weekly treatment, tumor growth was inhibited by 49% and 58% in mice treated with BP1 (FIG. 5A) or BP3 (FIG. 5B), respectively. The effect of BP3 on tumor growth was apparent after 2 weeks of treatment (FIG. 5B), whereas the inhibitory effect of BP1 was evident after one week (FIG. 5A). The average changes in individual tumor volumes during treatment with BP1 were significant (P<0.05) at days 10, 14, 17 and 24 (FIG. 5A). Treatment with BP2 was ineffective; tumors continued to grow at almost the same rate as the mock-treated controls (results not shown). BP4 treatment produced a 20% inhibition of tumor growth (results not shown).

[1] = test system: PlGF-mediated angiogenesis in corneal tissues; test: Mouse corneal micropocket angiogenesis assay; type: in vivo, C57B16/J mice; conditions: micropellets, 100 ng PlGF with 1 μM peptide, day 5
Experimental: The ability of PlGF ligands to block PlGF-mediated angiogenesis in corneal tissues in vivo is investigated. Corneal micropockets are created using a modified von Graefe cataract knife in both eyes of male 5-6-wk-old C57B16/J mice. Micropellets comprised of a sustained release formulation of polyglucuronic acid/polylactic acid containing 100 ng of PlGF or PlGF with 1 μM BP-1, BP-2, BP-3 or BP-4 are implanted into each corneal pocket. Eyes are examined by a slit-lamp biomicroscope on day 5 after pellet implantation. Vessel length and neovascularization are measured.

VEGF165 = biological target: T1, VEGF165 (Homo sapiens, UniProt P15692); test: Free peptide binding ELISA (FLAG epitope probe), VEGF-coated wells
T1 construct: purchased R&D Systems
T1 sequence (P15692 27-191 isoform P15692-4): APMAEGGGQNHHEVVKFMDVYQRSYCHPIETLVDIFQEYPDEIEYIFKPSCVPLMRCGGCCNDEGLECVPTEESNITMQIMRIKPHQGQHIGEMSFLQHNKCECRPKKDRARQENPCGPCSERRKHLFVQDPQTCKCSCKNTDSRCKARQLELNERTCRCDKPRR
Experimental: Competition assays were done with 2.5 or 25 U/ml heparin (Sigma, St. Louis, Mo.). BP1, 3, 4, and a scrambled version of BP3 (scrBP3) were synthesized with a linker followed by the FLAG epitope ([…] SEQ ID NO:5) at the C-terminus. Thirty minutes after addition of the first reagent, the second reagent was added, followed by another 30 minute incubation. Peptide binding was assessed by probing for the FLAG epitope (Prickett et al., Biotechniques 7:580-9, 1989; Castrucci et al., J. Virol. 66:4647-53, 1992). Absorbance was read at 490 nm.

MDA-MB-468 = test: Matrigel cell invasion assay, MDA-MB-468; type: cell-based, human; conditions: 48 h
Experimental: Cellular invasion was determined by addition of 5×10^4cells to growth factor-reduced Matrigel invasion chambers (BD Biosciences Discovery Labware, Bedford, Mass.) (Taylor et al., 2003b; Passaniti et al., 1992, Lab Invest 67, 519-528). Additives to the Matrigel® plugs were pre-incubated together in a total volume of 100 μl PBS at RT for 10 min, after which each additive was added to the Matrigel. Growth factors (2.0 or 0.2 nM), peptide (2 μg/ml), or antibody (1 μg/ml) were added to cells in low serum (0.1% fetal bovine serum [FBS]) medium. Baseline and chemoattractant-based invasion (10% FBS) were included. The number of invading cells was determined by counting the number of cells on the bottom of the invasion chamber membrane after staining at 100× magnification after 24 h (MDA-MB-231) or 48 h (MCF-7, MDA-MB-468). The results of three to five separate experiments are presented.

Sequence: SHRYRLAIQLHASDSSSSCV [BP1]
- Relative activity (MCF-7; PlGF 2 nM ± test agent, relative to PlGF-only value): 45%
- Relative activity (MCF-7; VEGF 2 nM ± test agent, relative to VEGF-only value): 102%
- effect on PlGF-stimulated motility (in words) (MCF-7; antibody 1 μg/ml, peptide 2 μM): inhibited
- Migrating cells (MCF-7; growth factor PlGF 2 nM ± test agent (Flt-1 2 nM, peptide 2 μM, antibody 1 μg/ml)): 10.2 ± 7.8† cells/100× field
- Migrating cells (MCF-7; growth factor VEGF 2 nM ± test agent): 12.9 ± 2.9 cells/100× field
- duration of treatment after which effect on tumor growth was apparent (MDA-MB-468 xenografts): one week
- effect on PlGF mediated angiogenesis in corneal tissues [1]: inhibits
- binding to VEGF (in words) (VEGF165; ELISA-based binding assay): No measurable binding
- binding to VEGF165 (A490) (VEGF165; peptide with C-terminal FLAG epitope): 0.299±0.174
- Average fold-change in the number of cells on the membrane compared to untreated controls (MDA-MB-468; PlGF 0.2 nM ± peptide 2 μg/ml): 0.6 ± 0.4 fold
- Average fold-change in the number of cells on the membrane compared to untreated controls (MDA-MB-468; peptide 2 μg/ml alone): 1.2 ± 0.3 fold
